Target: T1, porcine pancreatic elastase (PPE) (Sus scrofa, UniProt P00772)
T1 construct: gene CELA1
Assay: Chromogenic elastase inhibition assay with SANA substrate, p-nitroaniline release
Assay type: biochemical

T1 sequence (P00772 27-266): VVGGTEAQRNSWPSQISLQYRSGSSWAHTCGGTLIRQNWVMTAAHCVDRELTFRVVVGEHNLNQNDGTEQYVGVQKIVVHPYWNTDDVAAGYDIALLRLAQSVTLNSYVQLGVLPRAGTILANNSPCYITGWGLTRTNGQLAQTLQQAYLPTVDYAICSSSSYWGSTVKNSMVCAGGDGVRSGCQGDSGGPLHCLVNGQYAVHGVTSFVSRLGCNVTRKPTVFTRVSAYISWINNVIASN

IC50: 60.4 ± 1.98 µM
Structure (SMILES): Cc1cc(C)cc(Cn2c(SCC(=O)Nc3ccc(C)cc3Cl)nc3ccccc32)c1 [compound 2, N-(2-chloro-4-methylphenyl)-2-[[1-[(3,5-dimethylphenyl)methyl]-1H-benzimidazol-2-yl]thio]acetamide]

Source: publication PMC11508974, “Computational Approach to Identifying New Chemical Entities as Elastase Inhibitors with Potential Antiaging Effects” (International Journal of Molecular Sciences, 2024)
